Test results published in ChEMBL document CHEMBL2057199, “Development of novel M1 antagonist scaffolds through the continued optimization of the MLPCN probe ML012” (Bioorg Med Chem Lett, 2012).
Activity calls are given as the source filed them. No cut-off for these calls is given here.

Assays:
[1] = target: T1, Muscarinic acetylcholine receptor M2 (Homo sapiens, UniProt P08172); test: Antagonist activity at human muscarinic M2 receptor assessed as inhibition of acetylcholine-induced calcium mobilization; format: functional
T1 sequence (P08172 whole entry): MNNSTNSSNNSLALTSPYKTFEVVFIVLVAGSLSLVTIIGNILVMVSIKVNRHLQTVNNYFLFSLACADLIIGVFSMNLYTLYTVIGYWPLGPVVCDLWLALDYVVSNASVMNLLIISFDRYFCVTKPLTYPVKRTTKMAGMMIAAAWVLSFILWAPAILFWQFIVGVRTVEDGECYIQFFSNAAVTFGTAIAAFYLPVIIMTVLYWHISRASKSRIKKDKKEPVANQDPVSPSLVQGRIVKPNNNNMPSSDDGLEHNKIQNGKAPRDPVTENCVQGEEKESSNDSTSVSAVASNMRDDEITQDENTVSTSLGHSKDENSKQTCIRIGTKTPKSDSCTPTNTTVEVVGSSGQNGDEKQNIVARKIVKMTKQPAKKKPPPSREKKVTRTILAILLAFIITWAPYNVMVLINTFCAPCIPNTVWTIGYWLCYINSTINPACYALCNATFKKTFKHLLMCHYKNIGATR

[2] = target: T2, Muscarinic acetylcholine receptor M1 (Homo sapiens) (UniProt P11229); test: Antagonist activity at human muscarinic M1 receptor assessed as rightward shift in acetylcholine concentration response curve; format: functional
T2 sequence (whole entry): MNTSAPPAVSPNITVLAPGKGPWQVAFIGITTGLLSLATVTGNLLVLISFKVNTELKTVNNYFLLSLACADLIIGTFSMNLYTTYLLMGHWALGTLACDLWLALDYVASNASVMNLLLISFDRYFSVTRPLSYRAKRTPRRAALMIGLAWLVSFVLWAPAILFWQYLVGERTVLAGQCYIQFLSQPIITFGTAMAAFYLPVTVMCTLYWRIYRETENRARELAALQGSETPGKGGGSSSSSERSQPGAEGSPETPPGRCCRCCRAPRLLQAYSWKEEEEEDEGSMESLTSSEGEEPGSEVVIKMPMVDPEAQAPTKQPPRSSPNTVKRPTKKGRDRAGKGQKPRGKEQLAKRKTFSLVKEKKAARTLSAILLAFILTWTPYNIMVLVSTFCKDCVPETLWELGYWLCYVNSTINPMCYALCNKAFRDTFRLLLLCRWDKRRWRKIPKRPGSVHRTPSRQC

[3] = target: T2, Muscarinic acetylcholine receptor M1 (Homo sapiens); test: Displacement of [3H]NMS from human muscarinic M1 receptor
[4] = target: T2, Muscarinic acetylcholine receptor M1 (Homo sapiens); test: Antagonist activity at human muscarinic M1 receptor expressed in CHO cells assessed as inhibition of acetylcholine-induced calcium mobilization at 30 uM measured after 15 mins by fluorescence analysis; format: functional, cell-based; parameters: scale not given: the % may be the effect or the level left
[5] = target: T2, Muscarinic acetylcholine receptor M1 (Homo sapiens); test: (§1) Antagonist activity at human muscarinic M1 receptor expressed in CHO cells assessed as inhibition of acetylcholine-induced calcium mobilization by fluorescence analysis; format: functional, cell-based
[6] = target: T3, Muscarinic acetylcholine receptor M1 (Homo sapiens, UniProt P11229); test: as §1; format: functional, cell-based; settings: read-out: IC50
T3 sequence (P11229 whole entry): T2 sequence (whole entry)

Brain = test: Fraction unbound in rat brain homogenate; format: ADME, tissue-based
Cytochrome P450 1A2 = target: T4, Cytochrome P450 1A2 (Homo sapiens, UniProt P05177); test: Inhibition of CPY1A2
T4 sequence (P05177 whole entry): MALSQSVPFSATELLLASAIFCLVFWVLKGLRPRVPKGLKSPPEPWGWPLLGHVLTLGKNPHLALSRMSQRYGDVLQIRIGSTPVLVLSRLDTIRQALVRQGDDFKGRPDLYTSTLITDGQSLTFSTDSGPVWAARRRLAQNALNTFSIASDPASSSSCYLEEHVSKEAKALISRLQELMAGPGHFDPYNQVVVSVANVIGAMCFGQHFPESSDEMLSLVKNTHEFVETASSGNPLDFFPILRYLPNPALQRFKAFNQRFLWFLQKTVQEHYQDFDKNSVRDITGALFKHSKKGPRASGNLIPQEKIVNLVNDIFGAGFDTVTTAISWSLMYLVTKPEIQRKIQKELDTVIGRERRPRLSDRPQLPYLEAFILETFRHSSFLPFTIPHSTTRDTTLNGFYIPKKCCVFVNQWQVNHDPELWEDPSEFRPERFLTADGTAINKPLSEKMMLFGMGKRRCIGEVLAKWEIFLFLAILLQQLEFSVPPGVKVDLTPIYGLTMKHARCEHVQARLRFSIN

Cytochrome P450 3A4 = Cytochrome P450 3A4 (Homo sapiens, UniProt P08684); test: Inhibition of CPY3A4
Cytochrome P450 2C9 = Cytochrome P450 2C9 (Homo sapiens, UniProt P11712); test: Inhibition of CPY2C9
Cytochrome P450 2D6 = Cytochrome P450 2D6 (Homo sapiens, UniProt P10635); test: Inhibition of CPY2D6
[7] = Plasma clearance in iv dosed rat; format: ADME, organism-based
Plasma [8] = test: Fraction unbound in human plasma; format: ADME, cell-free
Plasma [9] = test: Fraction unbound in rat plasma; format: ADME, cell-free
[10] = target: T5, Muscarinic acetylcholine receptor M5 (Homo sapiens, UniProt P08912); test: Antagonist activity at human muscarinic M5 receptor assessed as inhibition of acetylcholine-induced calcium mobilization; format: functional
T5 sequence (P08912 whole entry): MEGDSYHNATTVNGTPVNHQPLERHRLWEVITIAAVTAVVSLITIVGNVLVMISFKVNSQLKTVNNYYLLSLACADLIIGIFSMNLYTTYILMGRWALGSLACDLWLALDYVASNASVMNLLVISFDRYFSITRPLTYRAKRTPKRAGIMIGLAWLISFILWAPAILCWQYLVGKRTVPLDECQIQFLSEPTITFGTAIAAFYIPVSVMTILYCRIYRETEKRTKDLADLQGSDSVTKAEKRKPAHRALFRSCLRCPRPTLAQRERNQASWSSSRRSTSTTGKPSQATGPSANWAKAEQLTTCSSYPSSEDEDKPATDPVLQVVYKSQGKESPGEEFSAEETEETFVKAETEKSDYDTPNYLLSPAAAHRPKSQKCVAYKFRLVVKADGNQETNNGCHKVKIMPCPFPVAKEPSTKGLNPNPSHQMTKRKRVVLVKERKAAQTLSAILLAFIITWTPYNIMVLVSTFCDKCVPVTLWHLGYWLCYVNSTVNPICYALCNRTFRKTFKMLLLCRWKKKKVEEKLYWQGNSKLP

[11] = target: T6, Muscarinic acetylcholine receptor M4 (Homo sapiens, UniProt P08173); test: Antagonist activity at human muscarinic M4 receptor assessed as inhibition of acetylcholine-induced calcium mobilization; format: functional
T6 sequence (P08173 whole entry): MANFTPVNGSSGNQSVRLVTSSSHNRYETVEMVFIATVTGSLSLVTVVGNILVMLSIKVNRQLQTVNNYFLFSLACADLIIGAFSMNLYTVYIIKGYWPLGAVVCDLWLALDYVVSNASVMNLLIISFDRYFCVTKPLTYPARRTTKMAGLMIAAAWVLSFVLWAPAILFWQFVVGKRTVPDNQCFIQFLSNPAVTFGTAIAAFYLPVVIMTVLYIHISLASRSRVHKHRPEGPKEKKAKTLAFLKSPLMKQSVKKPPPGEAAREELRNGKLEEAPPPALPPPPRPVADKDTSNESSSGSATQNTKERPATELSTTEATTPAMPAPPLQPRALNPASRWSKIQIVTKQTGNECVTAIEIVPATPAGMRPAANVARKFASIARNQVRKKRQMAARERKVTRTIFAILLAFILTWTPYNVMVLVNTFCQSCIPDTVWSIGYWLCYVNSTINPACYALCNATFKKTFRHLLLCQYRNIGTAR

[12] = target: Muscarinic acetylcholine receptor M3 (Homo sapiens, UniProt P20309); test: Antagonist activity at human muscarinic M3 receptor assessed as inhibition of acetylcholine-induced calcium mobilization; format: functional
Sequence of Muscarinic acetylcholine receptor M3 (P20309 whole entry): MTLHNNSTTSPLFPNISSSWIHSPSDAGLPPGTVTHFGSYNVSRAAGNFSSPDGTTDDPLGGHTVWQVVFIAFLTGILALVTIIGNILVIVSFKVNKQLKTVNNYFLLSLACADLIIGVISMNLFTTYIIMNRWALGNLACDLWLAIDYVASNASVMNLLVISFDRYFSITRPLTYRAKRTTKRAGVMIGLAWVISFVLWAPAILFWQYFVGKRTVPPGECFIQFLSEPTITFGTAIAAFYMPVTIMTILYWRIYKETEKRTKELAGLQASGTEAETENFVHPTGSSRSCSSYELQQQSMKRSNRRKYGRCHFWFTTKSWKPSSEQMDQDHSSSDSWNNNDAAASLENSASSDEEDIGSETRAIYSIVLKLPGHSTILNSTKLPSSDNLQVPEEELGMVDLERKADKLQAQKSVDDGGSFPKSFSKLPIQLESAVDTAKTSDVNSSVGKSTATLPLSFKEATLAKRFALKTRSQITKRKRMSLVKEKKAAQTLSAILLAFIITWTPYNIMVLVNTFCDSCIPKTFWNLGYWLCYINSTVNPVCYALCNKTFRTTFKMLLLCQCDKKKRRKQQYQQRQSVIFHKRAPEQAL

Sequence of Cytochrome P450 2D6 (P10635 whole entry): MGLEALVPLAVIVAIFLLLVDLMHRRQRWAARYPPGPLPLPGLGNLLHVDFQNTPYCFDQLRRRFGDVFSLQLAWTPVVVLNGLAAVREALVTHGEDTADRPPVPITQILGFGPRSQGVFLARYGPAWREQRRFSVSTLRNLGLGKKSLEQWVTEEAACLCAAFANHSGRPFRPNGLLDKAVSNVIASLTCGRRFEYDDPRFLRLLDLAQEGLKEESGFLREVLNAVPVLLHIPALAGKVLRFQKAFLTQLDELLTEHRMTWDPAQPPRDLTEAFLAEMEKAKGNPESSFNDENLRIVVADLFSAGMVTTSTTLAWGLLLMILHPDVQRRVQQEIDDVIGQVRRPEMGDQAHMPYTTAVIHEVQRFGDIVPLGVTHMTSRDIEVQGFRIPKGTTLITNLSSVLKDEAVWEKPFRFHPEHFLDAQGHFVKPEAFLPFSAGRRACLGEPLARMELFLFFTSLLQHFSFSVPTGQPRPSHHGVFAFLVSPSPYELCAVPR
Sequence of Cytochrome P450 3A4 (P08684 whole entry): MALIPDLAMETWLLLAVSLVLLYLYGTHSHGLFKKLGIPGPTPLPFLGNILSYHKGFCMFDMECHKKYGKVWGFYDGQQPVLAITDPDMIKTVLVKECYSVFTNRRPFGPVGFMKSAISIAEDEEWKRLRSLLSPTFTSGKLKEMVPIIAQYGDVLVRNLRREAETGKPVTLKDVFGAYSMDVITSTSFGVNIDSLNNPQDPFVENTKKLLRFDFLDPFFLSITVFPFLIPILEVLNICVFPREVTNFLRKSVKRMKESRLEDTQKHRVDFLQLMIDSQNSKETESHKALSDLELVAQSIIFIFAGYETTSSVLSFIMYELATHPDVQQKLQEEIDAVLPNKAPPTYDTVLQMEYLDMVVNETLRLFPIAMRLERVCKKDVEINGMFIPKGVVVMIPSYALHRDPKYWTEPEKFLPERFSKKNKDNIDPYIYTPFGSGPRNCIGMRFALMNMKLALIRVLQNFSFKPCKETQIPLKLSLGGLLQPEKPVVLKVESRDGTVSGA
Sequence of Cytochrome P450 2C9 (P11712 whole entry): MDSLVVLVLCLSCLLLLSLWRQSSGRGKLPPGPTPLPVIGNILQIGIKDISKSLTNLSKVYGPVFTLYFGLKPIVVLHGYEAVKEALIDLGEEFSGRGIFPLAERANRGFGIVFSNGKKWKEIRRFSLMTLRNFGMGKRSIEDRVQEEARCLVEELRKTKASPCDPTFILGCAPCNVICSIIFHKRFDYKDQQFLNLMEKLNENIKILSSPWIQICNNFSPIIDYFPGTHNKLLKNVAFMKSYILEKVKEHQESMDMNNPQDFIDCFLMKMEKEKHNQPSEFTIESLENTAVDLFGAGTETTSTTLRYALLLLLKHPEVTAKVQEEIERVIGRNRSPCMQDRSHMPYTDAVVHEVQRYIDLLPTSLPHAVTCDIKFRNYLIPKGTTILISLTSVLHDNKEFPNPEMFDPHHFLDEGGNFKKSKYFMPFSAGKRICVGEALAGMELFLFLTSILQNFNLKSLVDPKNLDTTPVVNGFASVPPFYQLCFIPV

## O=C(C1CN(S(=O)(=O)c2cccc3cnccc23)C1)N1CC2CN(c3ccncc3)CC2C1 (configuration not stated)
[1]
  IC50: > 10 µM
[2]
  Activity: Active
[3]
  Activity: Active
[4]
  Activity: 2.8%
[5]
  inhibition: Dose-dependent effect
[6]
  IC50: 0.23 µM
Brain
  Fu: 0.08%
Cytochrome P450 1A2
  IC50: > 30 µM
Cytochrome P450 3A4
  IC50: < 2.5 µM
Cytochrome P450 2C9
  IC50: < 2.5 µM
Cytochrome P450 2D6
  IC50: < 2.5 µM
[7]
  clearance: 68.6 mL/min/kg
Plasma [8]
  Fu: 0.9%
Plasma [9]
  Fu: 0.6%
[10]
  IC50: > 10 µM
[11]
  IC50: > 10 µM
[12]
  IC50: > 10 µM
